Measurements taken from patent US11685739B2, “High penetration drugs and their compositions thereof for treatment of Parkinson diseases” (TECHFIELDS PHARMA CO., LTD, priority 2013, dated 2023).
Where a name gives a salt, the structure may show the parent alone. Read-outs that look alike come from different tables or passages of the source.

Conditions: human, pH 7.4

## CCC(CC)C(=O)Oc1ccc(CCNC(=O)C2CCNCC2)cc1OC(=O)C(CC)CC.Cl [Compound-6]
1 h
  The cumulative amount of test compounds: 0.63 mg
2 h
  The cumulative amount of test compounds: 1.25 mg
4 h
  The cumulative amount of test compounds: 2.53 mg
8 h
  The cumulative amount of test compounds: 5.03 mg

## CCN(CC)CCOC(=O)C(C)c1ccc(CC(C)C)cc1.Cl (stereo not shown) [Compound-28, 2-(diethylamino)ethyl 2-(4-isobutylphenyl)propionate hydrochloride]
1 h
  The cumulative amount of test compounds: 1.15 mg
2 h
  The cumulative amount of test compounds: 2.28 mg
4 h
  The cumulative amount of test compounds: 4.57 mg
8 h
  The cumulative amount of test compounds: 9.19 mg

## CCC(CC)C(=O)Oc1ccc(CCNC(=O)OC2CCC3CCCCN3C2)cc1OC(=O)C(CC)CC (stereo not shown) [Compound-7, 4-(2-((((-octahydro-1H-quinolizin-3-yl)oxy)carbonyl)amino)ethyl)-1,2,-phenylene bis(2-ethylbutanoate) acetate]
1 h
  The cumulative amount of test compounds: 0.64 mg
2 h
  The cumulative amount of test compounds: 1.27 mg
4 h
  The cumulative amount of test compounds: 2.57 mg
8 h
  The cumulative amount of test compounds: 5.05 mg

## CC(C)OC(=O)[C@H](Cc1ccc2c(c1)OC(=O)CC(N)C(=O)O2)NC(=O)OC(C)OC(=O)C(C)C (stereo partly drawn) [Compound-20(a), (2S)-isopropyl 3-(3-amino-2,5-dioxo-2,3,4,5-tetrahydrobenzo[b][1,4]dioxocin-8-yl)-2-(((1-(isobutyryloxy)ethoxy)carbonyl)amino)propanoate hydrobromide]
1 h
  The cumulative amount of test compounds: 0.42 mg
2 h
  The cumulative amount of test compounds: 0.88 mg
4 h
  The cumulative amount of test compounds: 1.75 mg
8 h
  The cumulative amount of test compounds: 3.49 mg

## CCCCC(=O)Oc1ccc(C[C@H](N)C(=O)OC(C)C)cc1OC(=O)CCCC.Cl [Compound-13, (S)-4-(2-amino-3-isopropoxy-3-oxopropyl)-1,2-phenylene dipentanoate hydrochloride]
1 h
  The cumulative amount of test compounds: 0.52 mg
2 h
  The cumulative amount of test compounds: 1.05 mg
4 h
  The cumulative amount of test compounds: 2.10 mg
8 h
  The cumulative amount of test compounds: 4.23 mg

## CC(C(=O)O)c1cccc(Oc2ccccc2)c1 (stereo not shown) [Compound-34, 2-(3-phenoxyphenyl) propionic acid, reference compound]
1 h
  The cumulative amount of test compounds: 0.001 mg
2 h
  The cumulative amount of test compounds: 0.001 mg
4 h
  The cumulative amount of test compounds: 0.002 mg
8 h
  The cumulative amount of test compounds: 0.003 mg

## CC(C)OC(=O)[C@H](Cc1ccc(OC(=O)c2ccccc2)c(OC(=O)c2ccccc2)c1)NC(=O)C1CCNCC1 [Compound-18, (S)-4-(3-isopropoxy-3-oxo-2-(piperidine-4-carboxamido)propyl)-1,2-phenylene dibenzoate hydrochloride]
1 h
  The cumulative amount of test compounds: 0.52 mg
2 h
  The cumulative amount of test compounds: 1.03 mg
4 h
  The cumulative amount of test compounds: 2.10 mg
8 h
  The cumulative amount of test compounds: 4.19 mg

## CC(OC(=O)NCCc1ccc2c(c1)OC(=O)CC(N)C(=O)O2)OC(=O)C(C)C (stereo not shown) [Compound-8b, 1-(((2-(3-amino-2,5-dioxo-2,3,4,5-tetrahydrobenzo[b][1,4]dioxocin-8-yl)ethyl)carbamoyl)oxy)ethyl isobutyrate hydrofluoride]
1 h
  The cumulative amount of test compounds: 0.62 mg
2 h
  The cumulative amount of test compounds: 1.24 mg
4 h
  The cumulative amount of test compounds: 2.47 mg
8 h
  The cumulative amount of test compounds: 4.85 mg

## CC(C)OC(=O)[C@H](Cc1ccc(OC(=O)C(C)C)c(OC(=O)C(C)C)c1)NC(=O)C1CCN2CCCCC2C1.Cl (stereo partly drawn) [Compound-19, 4-((2S)-3-isopropoxy-3-2-(octahydro-1H-quinolizine-2-carboxamido)-3-oxopropyl)-1,2-phenylene bis(2-methylpropanoate) hydrochloride]
1 h
  The cumulative amount of test compounds: 0.48 mg
2 h
  The cumulative amount of test compounds: 0.98 mg
4 h
  The cumulative amount of test compounds: 2.02 mg
8 h
  The cumulative amount of test compounds: 4.09 mg

## CCN(CC)CCOC(=O)CC1=C(C)/C(=C/c2ccc([S+](C)[O-])cc2)c2ccc(F)cc21 (stereo not shown) [Compound-24]
1 h
  The cumulative amount of test compounds: 0.87 mg
2 h
  The cumulative amount of test compounds: 1.79 mg
4 h
  The cumulative amount of test compounds: 3.53 mg
8 h
  The cumulative amount of test compounds: 7.15 mg

## CCN(CC)CCOC(=O)c1ccccc1Nc1c(Cl)ccc(C)c1Cl [Compound-23, 2-(diethylamino)ethyl 2-[(2,6-dichloro-3-methylphenyl)amino]benzoate.acetate]
1 h
  The cumulative amount of test compounds: 0.85 mg
2 h
  The cumulative amount of test compounds: 1.69 mg
4 h
  The cumulative amount of test compounds: 3.38 mg
8 h
  The cumulative amount of test compounds: 6.85 mg

## Cl.NC(Cc1ccccc1)C(=O)NCCc1ccc(OC(=O)c2ccccc2)c(OC(=O)c2ccccc2)c1 (stereo not shown) [Compound-4, 4-(2-(2-amino-3-phenylpropanamido)ethyl)-1,2,-phenylene dibenzoate hydrochloride]
1 h
  The cumulative amount of test compounds: 0.59 mg
2 h
  The cumulative amount of test compounds: 1.21 mg
4 h
  The cumulative amount of test compounds: 2.45 mg
8 h
  The cumulative amount of test compounds: 4.93 mg

## CNCC(=O)Oc1ccc(C[C@H](NC(=O)OC(C)OC(=O)C(C)C)C(=O)OC(C)C)cc1OC(=O)c1ccccc1 (stereo partly drawn) [Compound-21(a), 5-((2S)-2-(((1-(isobutyryloxy)ethoxy)carbonyl)amino-3-isopropoxy-3-oxopropyl)-2-(2-(methylamino)acetoxy)phenyl benzoate hydrochloride]
1 h
  The cumulative amount of test compounds: 0.52 mg
2 h
  The cumulative amount of test compounds: 1.08 mg
4 h
  The cumulative amount of test compounds: 2.17 mg
8 h
  The cumulative amount of test compounds: 4.37 mg

## Br.CNCC(=O)OC(C)OC(=O)NCCc1ccc(OC(=O)c2ccccc2)c(OC(=O)c2ccccc2)c1 (stereo not shown) [Compound-3, 4-(6-methyl-4,8-dioxo-5,7-dioxa-2,9-diazadecan-11-yl)-1,2,-phenylene dibenzoate hydrobromide]
1 h
  The cumulative amount of test compounds: 0.61 mg
2 h
  The cumulative amount of test compounds: 1.23 mg
4 h
  The cumulative amount of test compounds: 2.49 mg
8 h
  The cumulative amount of test compounds: 5.01 mg

## CC(C(=O)OCCN(C)C)c1cccc(Oc2ccccc2)c1.Cl (stereo not shown) [Compound-25, 2-(dimethylamino)ethyl 2-(3-phenoxyphenyl) propionate.hydrochloride]
1 h
  The cumulative amount of test compounds: 1.15 mg
2 h
  The cumulative amount of test compounds: 2.31 mg
4 h
  The cumulative amount of test compounds: 4.58 mg
8 h
  The cumulative amount of test compounds: 9.22 mg

## CCOC(=O)NCCc1ccc(OC(=O)CNC)c(OC(=O)c2ccccc2)c1 [Compound-9b, 5-(2-((ethoxycarbonyl)amino)ethyl)-2-(2-methylamino)acetoxy)phenyl benzoate hydrochloride]
1 h
  The cumulative amount of test compounds: 0.62 mg
2 h
  The cumulative amount of test compounds: 1.26 mg
4 h
  The cumulative amount of test compounds: 2.48 mg
8 h
  The cumulative amount of test compounds: 4.95 mg

## CC(OC(=O)NCCc1ccc2c(c1)OC(=O)C(N)CC(=O)O2)OC(=O)C(C)C (stereo not shown) [Compound-8a, 1-(((2-(4-amino-2,5-dioxo-2,3,4,5-tetrahydrobenzo[b][1,4]dioxocin-8-yl)ethyl)carbamoyl)oxy)ethyl isobutyrate hydrofluoride]
1 h
  The cumulative amount of test compounds: 0.63 mg
2 h
  The cumulative amount of test compounds: 1.22 mg
4 h
  The cumulative amount of test compounds: 2.43 mg
8 h
  The cumulative amount of test compounds: 4.83 mg

## CNCC(=O)NCCc1ccc(OC(=O)c2ccccc2)c(OC(=O)c2ccccc2)c1.Cl [Compound-1, 4-(2-(2-(methylamino)acetamido)ethyl)-1,2,-phenylene dibenzoate hydrochloride]
1 h
  The cumulative amount of test compounds: 0.67 mg
2 h
  The cumulative amount of test compounds: 1.33 mg
4 h
  The cumulative amount of test compounds: 2.67 mg
8 h
  The cumulative amount of test compounds: 5.25 mg

## CC(=O)Oc1ccccc1C(=O)O [Compound-32, acetylsalicylic acid, reference compound]
1 h
  The cumulative amount of test compounds: 0.001 mg
2 h
  The cumulative amount of test compounds: 0.001 mg
4 h
  The cumulative amount of test compounds: 0.002 mg
8 h
  The cumulative amount of test compounds: 0.003 mg

## CC(C)OC(=O)[C@H](Cc1ccc(OC(=O)c2ccccc2)c(OC(=O)c2ccccc2)c1)NC(=O)CN.Cl [Compound-16]
1 h
  The cumulative amount of test compounds: 0.56 mg
2 h
  The cumulative amount of test compounds: 1.13 mg
4 h
  The cumulative amount of test compounds: 2.23 mg
8 h
  The cumulative amount of test compounds: 4.49 mg

## CC(C)OC(=O)[C@H](Cc1ccc2c(c1)OC(=O)C(N)CC(=O)O2)NC(=O)OC(C)OC(=O)C(C)C (stereo partly drawn) [Compound-20(b), (2S)-isopropyl 3-(4-amino-2,5-dioxo-2,3,4,5-tetrahydrobenzo[b][1,4]dioxocin-8-yl)-2-(((1-(isobutyryloxy)ethoxy)carbonyl)amino)propanoate hydrobromide]
1 h
  The cumulative amount of test compounds: 0.43 mg
2 h
  The cumulative amount of test compounds: 0.85 mg
4 h
  The cumulative amount of test compounds: 1.78 mg
8 h
  The cumulative amount of test compounds: 3.52 mg

## CCOC(=O)[C@@H](N)Cc1ccc(OC(C)=O)c(OC(C)=O)c1.Cl [Compound-14, (S)-4-(2-amino-3-ethoxy-3-oxopropyl)-1,2-phenylene diacetate hydrochloride]
1 h
  The cumulative amount of test compounds: 0.60 mg
2 h
  The cumulative amount of test compounds: 1.21 mg
4 h
  The cumulative amount of test compounds: 2.44 mg
8 h
  The cumulative amount of test compounds: 4.82 mg
